Each compound was assayed against T1, hMC2 receptor (crude hMC2R membranes from CRE-bla-CHO-K1 cells stably expressing hMC2 receptor and hMRAP accessory protein) (Homo sapiens, UniProt Q01718) (assay: hMC2 membrane binding assay ([125I]ACTH (1-39) Tyr23, SPA)). Conditions: displacement of 0.2 nM [125I]ACTH (1-39) Tyr23 from hMC2R membranes, 1.5 hours at room temperature; read-out: MC2R binding potency.
T1 construct: crude membrane fractions
T1 sequence (Q01718 whole entry): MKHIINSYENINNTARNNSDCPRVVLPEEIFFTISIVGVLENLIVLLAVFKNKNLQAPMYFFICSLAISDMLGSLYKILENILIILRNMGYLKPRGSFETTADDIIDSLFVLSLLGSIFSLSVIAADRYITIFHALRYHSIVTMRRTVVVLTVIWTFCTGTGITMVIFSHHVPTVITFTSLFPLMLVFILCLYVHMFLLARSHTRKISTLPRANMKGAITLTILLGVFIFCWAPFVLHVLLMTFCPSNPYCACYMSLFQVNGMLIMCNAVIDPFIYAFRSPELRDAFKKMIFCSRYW
T1 sequence (Q8TCY5 whole entry partner): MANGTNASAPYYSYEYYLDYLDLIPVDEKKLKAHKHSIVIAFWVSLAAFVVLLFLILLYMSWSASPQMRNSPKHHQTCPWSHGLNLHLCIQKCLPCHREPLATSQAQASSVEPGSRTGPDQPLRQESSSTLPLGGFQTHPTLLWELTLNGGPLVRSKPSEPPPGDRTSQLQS
In short: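 Crude membranes from CRE-bla-CHO-K1 cells stably co-expressing hMC2R and hMRAP, premixed with WGA PVT SPA beads in pH 7.4 HEPES buffer (5 mM MgCl2, 1 mM CaCl2, 0.20% BSA, protease inhibitors). Compounds compete with [125I]ACTH(1-39) Tyr23, read by scintillation. Ki from non-linear regression.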
For `COc1ccccc1-c1ccc(C2(C(=O)NCCN(C)C)CCN(c3ccc(C(F)(F)F)cc3F)CC2)cn1` [Compound 1-254, N-[2-(dimethylamino)ethyl]-1-[2-fluoro-4-(trifluoromethyl)phenyl]-4-[6-(2-methoxyphenyl)pyridin-3-yl]piperidine-4-carboxamide], the Ki was < 10 nM.
`CCOc1ncccc1-c1ccc(C2(NC(=O)[C@H]3CCCN3C)CCN(c3ccc(C(F)(F)F)cc3C#N)CC2)cc1` [Compound 2-17, (2R)—N-{1-[2-cyano-4-(trifluoromethyl)phenyl]-4-[4-(2-ethoxypyridin-3-yl)phenyl]piperidin-4-yl}-1-methylpyrrolidine-2-carboxamide] gave a Ki of 10 to 100 nM.
`CCOc1ncccc1-c1ccc(C2(C(=O)NCCNC)CCN(c3ccc(C(F)(F)F)cc3Cl)CC2)cn1` [Compound 1-225, 1-[2-chloro-4-(trifluoromethyl)phenyl]-4-{2′-ethoxy-[2,3′-bipyridin]-5-yl}-N-[2-(methylamino)ethyl]piperidine-4-carboxamide] was tested, and the Ki was < 10 nM.
`CN1CC[C@@H](NC(=O)C2(c3ccc(-c4cccc5ccn(C)c45)nc3)CCN(c3ccc(C(F)(F)F)cc3C#N)CC2)C1` [Compound 1-190, 1-[2-cyano-4-(trifluoromethyl)phenyl]-4-[6-(1-methyl-1H-indol-7-yl)pyridin-3-yl]-N-[(3R)-1-methylpyrrolidin-3-yl]piperidine-4-carboxamide] gave a Ki of 10 to 100 nM.
In the case of `CN1CC[C@H](NC(=O)C2(c3ccc(-c4ccccc4C4CC4)nc3)CCN(c3ccc(C(F)(F)F)cc3C#N)CC2)C1` [Compound 1-121, 1-[2-cyano-4-(trifluoromethyl)phenyl]-4-[6-(2-cyclopropylphenyl)pyridin-3-yl]-N-[(3S)-1-methylpyrrolidin-3-yl]piperidine-4-carboxamide], the Ki is reported as < 10 nM.
With `CCOc1ccccc1-c1ccc(C2(NC(=O)CCN(C)C)CCN(c3ccc(Cl)cc3C#N)CC2)cn1` [Compound 2-30, N-[1-(4-chloro-2-cyanophenyl)-4-[6-(2-ethoxyphenyl)pyridin-3-yl]piperidin-4-yl]-3-(dimethylamino)propanamide] the Ki was < 10 nM.
Work on `Cn1cccc1-c1ccc(C2(C(=O)N[C@H]3CN4CCC3CC4)CCN(c3ccc(C(F)(F)F)cc3C#N)CC2)cn1` [Compound 1-188, N-[(3R)-1-azabicyclo[2.2.2]octan-3-yl]-1-[2-cyano-4-(trifluoromethyl)phenyl]-4-[6-(1-methyl-1H-pyrrol-2-yl)pyridin-3-yl]piperidine-4-carboxamide] yielded a Ki of 10 to 100 nM.
`CNC[C@H](C)NC(=O)C1(c2ccc(-c3cccn3C)nc2)CCN(c2ccc(C(F)(F)F)cc2F)CC1` [Compound 1-298, 1-[2-fluoro-4-(trifluoromethyl)phenyl]-4-[6-(1-methyl-1H-pyrrol-2-yl)pyridin-3-yl]-N-[(2S)-1-(methylamino)propan-2-yl]piperidine-4-carboxamide] was tested, and the Ki was < 10 nM.
In the case of `COc1ccccc1-c1ccc(C2(C(=O)NCCN(C)C)CCN(c3ccc(C(F)(F)F)cc3Cl)CC2)cn1` [Compound 1-255, 1-[2-chloro-4-(trifluoromethyl)phenyl]-N-[2-(dimethylamino)ethyl]-4-[6-(2-methoxyphenyl)pyridin-3-yl]piperidine-4-carboxamide], the Ki is reported as < 10 nM.
In the case of `COc1ccccc1-c1ncc(C2(NC(=O)N[C@H]3CCN(C)C3)CCN(c3ccc(C(F)(F)F)cc3C#N)CC2)cc1F` [Compound 2-51, 1-{1-[2-cyano-4-(trifluoromethyl)phenyl]-4-[5-fluoro-6-(2-methoxyphenyl)pyridin-3-yl]piperidin-4-yl}-3-[(3S)-1-methylpyrrolidin-3-yl]urea], the Ki is reported as < 10 nM.
In the case of `CCOc1ncccc1-c1ccc(C2(C(=O)NCCNC)CCN(c3ccc(C(F)(F)F)cc3C#N)CC2)cc1` [Compound 1-7, 1-[2-cyano-4-(trifluoromethyl)phenyl]-4-[4-(2-ethoxypyridin-3-yl)phenyl]-N-[2-(methylamino)ethyl]piperidine-4-carboxamide], the Ki is reported as < 10 nM.
`CCOc1ncccc1-c1ccc(C2(C(=O)N[C@@H]3CCNC3)CCN(c3ccc(C(F)(F)F)cc3C#N)CC2)cn1` [Compound 1-10, 1-[2-cyano-4-(trifluoromethyl)phenyl]-4-{2′-ethoxy-[2,3′-bipyridin]-5-yl}-N-[(3R)-pyrrolidin-3-yl]piperidine-4-carboxamide] was tested, and the Ki was < 10 nM.
`CN1CC[C@H](NC(=O)C2(c3ccc(-c4cccc(F)c4C#N)nc3)CCN(c3ccc(C(F)(F)F)cc3C#N)CC2)C1` [Compound 1-148, 4-[6-(2-cyano-3-fluorophenyl)pyridin-3-yl]-1-[2-cyano-4-(trifluoromethyl)phenyl]-N-[(3S)-1-methylpyrrolidin-3-yl]piperidine-4-carboxamide] gave a Ki of 10 to 100 nM.
For `CN(C)CCNC(=O)C1(c2cnc(-c3cccn3C)c(F)c2)CCN(c2ccc(C(F)(F)F)cc2F)CC1` [Compound 1-304, N-[2-(dimethylamino)ethyl]-1-[2-fluoro-4-(trifluoromethyl)phenyl]-4-[5-fluoro-6-(1-methyl-1H-pyrrol-2-yl)pyridin-3-yl]piperidine-4-carboxamide], the Ki was < 10 nM.
For `COc1ccccc1-c1ncc(C2(C(=O)NCCN(C)C)CCN(c3ccc(C(F)(F)F)cc3Cl)CC2)cc1F` [Compound 1-286, 1-[2-chloro-4-(trifluoromethyl)phenyl]-N-[2-(dimethylamino)ethyl]-4-[5-fluoro-6-(2-methoxyphenyl)pyridin-3-yl]piperidine-4-carboxamide], the Ki was < 10 nM.
In the case of `COc1ccccc1-c1ncc(C2(NC(=O)O[C@@H]3CCN(C)C3)CCN(c3ccc(C(F)(F)F)cc3C#N)CC2)cc1F` [Compound 2-50, (3R)-1-methylpyrrolidin-3-yl N-{1-[2-cyano-4-(trifluoromethyl)phenyl]-4-[5-fluoro-6-(2-methoxyphenyl)pyridin-3-yl]piperidin-4-yl}carbamate], the Ki is reported as < 10 nM.
With `CCOc1ncccc1-c1ccc(C2(C(=O)NC[C@@H](C)N(C)C)CCN(c3ccc(C(F)(F)F)cc3C#N)CC2)cn1` [Compound 1-333, 1-[2-cyano-4-(trifluoromethyl)phenyl]-N-[(2R)-2-(dimethylamino)propyl]-4-{2′-ethoxy-[2,3′-bipyridin]-5-yl}piperidine-4-carboxamide] the Ki was < 10 nM.
For `CNCCNC(=O)C1(c2ccc(-c3cccn3C)nc2)CCN(c2ccc(C(F)(F)F)cc2C#N)CC1` [Compound 1-215, 1-[2-cyano-4-(trifluoromethyl)phenyl]-4-[6-(1-methyl-1H-pyrrol-2-yl)pyridin-3-yl]-N-[2-(methylamino)ethyl]piperidine-4-carboxamide], the Ki was < 10 nM.
For `COc1ncc(F)cc1-c1ncc(C2(C(=O)N[C@H]3CCN(C)C3)CCN(c3ccc(C(F)(F)F)cc3F)CC2)cc1F` [Compound 1-210, 4-{3,5′-difluoro-2′-methoxy-[2,3′-bipyridin]-5-yl}-1-[2-fluoro-4-(trifluoromethyl)phenyl]-N-[(3S)-1-methylpyrrolidin-3-yl]piperidine-4-carboxamide], the Ki was < 10 nM.
`CCOc1ncccc1-c1ccc(C2(C(=O)NCCN(C)C)CCN(c3ccc(C(F)(F)F)cc3F)CC2)nn1` [Compound 1-335, N-[2-(dimethylamino)ethyl]-4-[6-(2-ethoxypyridin-3-yl)pyridazin-3-yl]-1-[2-fluoro-4-(trifluoromethyl)phenyl]piperidine-4-carboxamide] was tested, and the Ki was < 10 nM.
`CCOc1ncccc1-c1ccc(C2(C(=O)N[C@H]3CCN(C)C3)CCN(c3ccc(C(F)F)cc3C#N)CC2)cn1` [Compound 1-37, 1-[2-cyano-4-(difluoromethyl)phenyl]-4-{2′-ethoxy-[2,3′-bipyridin]-5-yl}-N-[(3S)-1-methylpyrrolidin-3-yl]piperidine-4-carboxamide] was tested, and the Ki was < 10 nM.
With `COc1ncccc1-c1ccc(C2(C(=O)N[C@H]3CCN(C)C3)CCN(c3ccc(C(F)(F)F)cc3Cl)CC2)cn1` [Compound 1-142, 1-[2-chloro-4-(trifluoromethyl)phenyl]-4-{2′-methoxy-[2,3′-bipyridin]-5-yl}-N-[(3S)-1-methylpyrrolidin-3-yl]piperidine-4-carboxamide] the Ki was < 10 nM.
`CN1CC[C@@H](NC(=O)C2(c3ccc(-c4ccccc4C(F)(F)F)nc3)CCN(c3ccc(C(F)(F)F)cc3C#N)CC2)C1` [Compound 1-77, 1-[2-cyano-4-(trifluoromethyl)phenyl]-N-[(3R)-1-methylpyrrolidin-3-yl]-4-{6-[2-(trifluoromethyl)phenyl]pyridin-3-yl}piperidine-4-carboxamide] was tested, and the Ki was < 10 nM.
For `CN1CC[C@@H](NC(=O)C2(c3ccc(-c4cccc(F)c4)nc3)CCN(c3ccc(C(F)(F)F)cc3C#N)CC2)C1` [Compound 1-64, 1-[2-cyano-4-(trifluoromethyl)phenyl]-4-[6-(3-fluorophenyl)pyridin-3-yl]-N-[(3R)-1-methylpyrrolidin-3-yl]piperidine-4-carboxamide], the Ki was < 10 nM.
For `CN1CC[C@@H](NC(=O)C2(c3ccc(-c4ccccc4OC(F)(F)F)nc3)CCN(c3ccc(C(F)(F)F)cc3C#N)CC2)C1` [Compound 1-71, 1-[2-cyano-4-(trifluoromethyl)phenyl]-N-[(3R)-1-methylpyrrolidin-3-yl]-4-{6-[2-(trifluoromethoxy)phenyl]pyridin-3-yl}piperidine-4-carboxamide], the Ki was < 10 nM.
With `CCOc1ncccc1-c1ccc(C2(C(=O)N[C@H]3CCN(C)C3)CCN(c3ccc(C(F)(F)F)cc3C#N)CC2)nn1` [Compound 1-56, 1-[2-cyano-4-(trifluoromethyl)phenyl]-4-[6-(2-ethoxypyridin-3-yl)pyridazin-3-yl]-N-[(3S)-1-methylpyrrolidin-3-yl]piperidine-4-carboxamide] the Ki was < 10 nM.
For `CN(C)CCNC(=O)C1(c2cnc(-c3cccn3C)c(F)c2)CCN(c2ccc(C(F)(F)F)cc2Cl)CC1` [Compound 1-309, 1-[2-chloro-4-(trifluoromethyl)phenyl]-N-[2-(dimethylamino)ethyl]-4-[5-fluoro-6-(1-methyl-1H-pyrrol-2-yl)pyridin-3-yl]piperidine-4-carboxamide], the Ki was < 10 nM.
